According to ChEMBL document CHEMBL1201862, “PubChem BioAssay data set” (2004):
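These data come from cells grown in 96-well plates and exposed to compound for 48 hours at five concentrations. At the GI50, growth is halved.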 Active and inactive are the calls of the source. No stated cut-off is given here; in the data, active = GI50 up to about 1.1 µM and inactive = higher.

What was measured:
Test in all cases: DTP human tumour cell line panel, 48 h
OVCAR-4 = system: OVCAR-4
BT-549 = system: BT-549
ACHN = system: ACHN
CCRF-CEM = system: CCRF-CEM
HOP-92 = system: HOP-92
DU-145 = system: DU-145
MDA-MB-231 = system: MDA-MB-231
EKVX = system: EKVX
786-0 = system: 786-0
MDA-N = system: MDA-N
SK-MEL-28 = system: SK-MEL-28
RXF 393 = system: RXF 393
PC-3 = system: PC-3
UACC-257 = system: UACC-257
UACC-62 = system: UACC-62
TK-10 = system: TK-10
T47D = system: T47D
NCI-H23 = system: NCI-H23
OVCAR-8 = system: OVCAR-8
M14 = system: M14

Measured: GI50

Cc1ccc(C2=Nc3cc(C)c(Cl)cc3S(=O)(=O)NN2)cc1
inactive: OVCAR-4 77.4 µM | BT-549 > 100 µM | ACHN 65.5 µM | CCRF-CEM 38.5 µM | HOP-92 > 100 µM | DU-145 > 100 µM | MDA-MB-231 23.3 µM | EKVX > 100 µM | 786-0 58.1 µM | MDA-N > 100 µM | SK-MEL-28 > 100 µM | RXF 393 72.1 µM | PC-3 > 100 µM | UACC-257 > 100 µM | UACC-62 56.9 µM | TK-10 49.5 µM | T47D 54 µM | NCI-H23 > 100 µM | OVCAR-8 > 100 µM | M14 > 100 µM

N=C1OC(CN2CCN(c3ccccc3)CC2)CN1C(=O)Nc1ccccc1 (stereo not given)
inactive: OVCAR-4 > 100 µM | BT-549 > 100 µM | ACHN > 100 µM | CCRF-CEM 43.3 µM | HOP-92 > 100 µM | DU-145 > 100 µM | MDA-MB-231 > 100 µM | EKVX > 100 µM | 786-0 > 100 µM | MDA-N > 100 µM | SK-MEL-28 > 100 µM | RXF 393 > 100 µM | PC-3 > 100 µM | UACC-257 > 100 µM | UACC-62 > 100 µM | TK-10 > 100 µM | T47D > 100 µM | NCI-H23 > 100 µM | OVCAR-8 > 100 µM | M14 > 100 µM

CCOC(=O)C(NCc1cccc(C(F)(F)F)c1)(NC(=O)CC)C(F)(F)F (stereo not given)
inactive: OVCAR-4 > 100 µM | BT-549 > 100 µM | ACHN > 100 µM | CCRF-CEM > 100 µM | HOP-92 71 µM | DU-145 > 100 µM | MDA-MB-231 31.8 µM | EKVX 68.5 µM | 786-0 > 100 µM | MDA-N > 100 µM | SK-MEL-28 > 100 µM | RXF 393 5.52 µM | PC-3 95.5 µM | UACC-257 > 100 µM | UACC-62 96.6 µM | TK-10 > 100 µM | T47D 62.4 µM | NCI-H23 > 100 µM | OVCAR-8 > 100 µM | M14 > 100 µM

CCC1(CC)C(=O)CC[C@@]2(C)C1=CC[C@H]1[C@@H]3CC[C@H](O)[C@@]3(C)CC[C@@H]12
inactive: OVCAR-4 34.8 µM | BT-549 > 100 µM | ACHN 40.4 µM | CCRF-CEM 19.6 µM | HOP-92 37.5 µM | DU-145 33.8 µM | MDA-MB-231 47.9 µM | EKVX 28.5 µM | 786-0 15.5 µM | MDA-N 31.3 µM | SK-MEL-28 > 100 µM | RXF 393 36.6 µM | PC-3 30.3 µM | UACC-257 26.7 µM | UACC-62 54.7 µM | TK-10 19.9 µM | T47D 28.9 µM | NCI-H23 48.9 µM | OVCAR-8 23.5 µM | M14 43.4 µM

C[C@]12CC[C@@H]3c4cc(Br)c(O)c(Br)c4CC[C@H]3[C@@H]1CCC2=O
inactive: OVCAR-4 13.3 µM | BT-549 23.8 µM | ACHN 13.5 µM | CCRF-CEM 24.7 µM | HOP-92 34.9 µM | DU-145 39.6 µM | MDA-MB-231 32.2 µM | EKVX 25.5 µM | 786-0 19.7 µM | MDA-N 33.1 µM | SK-MEL-28 31 µM | RXF 393 16.7 µM | PC-3 30.8 µM | UACC-257 20.9 µM | UACC-62 16.3 µM | TK-10 17.6 µM | T47D 33.9 µM | NCI-H23 13.8 µM | OVCAR-8 19 µM | M14 39.2 µM

COc1cc2oc(-c3ccc(O)cc3)c(OC3OC(C)C(O)C(O)C3O)c(=O)c2c(O)c1OC (stereo not given)
inactive: OVCAR-4 57.8 µM | BT-549 62.1 µM | ACHN 90.8 µM | CCRF-CEM 35.6 µM | HOP-92 > 100 µM | DU-145 99.8 µM | MDA-MB-231 > 100 µM | EKVX > 100 µM | 786-0 51.2 µM | MDA-N > 100 µM | SK-MEL-28 > 100 µM | RXF 393 > 100 µM | PC-3 > 100 µM | UACC-257 > 100 µM | UACC-62 75.5 µM | TK-10 > 100 µM | T47D > 100 µM | NCI-H23 36.5 µM | OVCAR-8 91 µM | M14 > 100 µM

C=CCn1c(-c2ccc(Cl)cc2Cl)cs/c1=N\c1c(C)n(C)n(-c2ccccc2)c1=O
inactive: OVCAR-4 8.11 µM | BT-549 12.9 µM | ACHN 10 µM | CCRF-CEM 6.92 µM | HOP-92 17.9 µM | DU-145 13.2 µM | MDA-MB-231 13.8 µM | EKVX 3.54 µM | 786-0 13.1 µM | MDA-N 8.55 µM | SK-MEL-28 13 µM | RXF 393 14.5 µM | PC-3 5.53 µM | UACC-257 7.05 µM | UACC-62 10.4 µM | TK-10 12.3 µM | T47D 3.12 µM | NCI-H23 9.82 µM | OVCAR-8 5.81 µM | M14 11.3 µM

CC(C)C(Cl)CCC(C)(Cl)C(=O)CBr (stereo not given)
active: CCRF-CEM 0.331 µM
inactive: OVCAR-4 4.6 µM | BT-549 8.55 µM | ACHN 7.19 µM | HOP-92 10 µM | DU-145 17.8 µM | MDA-MB-231 5.37 µM | EKVX 18.2 µM | 786-0 3.96 µM | MDA-N 1.95 µM | SK-MEL-28 5.01 µM | RXF 393 2.44 µM | PC-3 8.3 µM | UACC-257 3.79 µM | UACC-62 2.77 µM | TK-10 5.83 µM | T47D 2.44 µM | NCI-H23 5.5 µM | OVCAR-8 3.37 µM | M14 3.43 µM

COc1cc(C(N)=O)cc(NC(=O)/C=C/c2ccccc2)c1OC
inactive: OVCAR-4 > 100 µM | BT-549 > 100 µM | ACHN > 100 µM | CCRF-CEM > 100 µM | HOP-92 35.7 µM | DU-145 > 100 µM | MDA-MB-231 > 100 µM | EKVX 89.7 µM | 786-0 > 100 µM | MDA-N > 100 µM | SK-MEL-28 > 100 µM | RXF 393 > 100 µM | PC-3 > 100 µM | UACC-257 > 100 µM | UACC-62 > 100 µM | TK-10 > 100 µM | T47D 71.1 µM | NCI-H23 > 100 µM | OVCAR-8 61.8 µM | M14 > 100 µM

CCN(CC)CCNc1c2ccccc2nc2cccc([N+](=O)[O-])c12
active: OVCAR-4 0.0125 µM | BT-549 0.005 µM | ACHN 0.00665 µM | CCRF-CEM 0.0462 µM | HOP-92 0.0146 µM | DU-145 0.0031 µM | MDA-MB-231 0.00136 µM | EKVX 0.0177 µM | 786-0 0.0136 µM | MDA-N 0.00179 µM | SK-MEL-28 0.04 µM | RXF 393 0.0176 µM | PC-3 0.00301 µM | UACC-257 0.0255 µM | UACC-62 0.0143 µM | TK-10 0.0288 µM | T47D 0.0101 µM | NCI-H23 0.00787 µM | OVCAR-8 0.0177 µM | M14 0.00925 µM

N=C1/C(=C/c2ccccc2)C(=O)N=C2SC=NN12
inactive: OVCAR-4 > 100 µM | BT-549 > 100 µM | ACHN > 100 µM | CCRF-CEM > 100 µM | HOP-92 > 100 µM | DU-145 > 100 µM | MDA-MB-231 > 100 µM | EKVX > 100 µM | 786-0 > 100 µM | MDA-N > 100 µM | SK-MEL-28 > 100 µM | RXF 393 > 100 µM | PC-3 > 100 µM | UACC-257 > 100 µM | UACC-62 > 100 µM | TK-10 > 100 µM | T47D > 100 µM | NCI-H23 > 100 µM | OVCAR-8 > 100 µM | M14 > 100 µM

O=C(CNc1ccc2c(=S)c3ccccc3[nH]c2c1)Nc1ccccc1-c1ccccc1NC(=O)CNc1ccc2c(=S)c3ccccc3[nH]c2c1
inactive: OVCAR-4 3.94 µM | BT-549 23.8 µM | ACHN 15.8 µM | CCRF-CEM 2.73 µM | HOP-92 23 µM | DU-145 18.3 µM | MDA-MB-231 22.7 µM | EKVX 24.4 µM | 786-0 13.1 µM | MDA-N 18.1 µM | SK-MEL-28 21.9 µM | RXF 393 27 µM | PC-3 19.4 µM | UACC-257 21 µM | UACC-62 18.2 µM | TK-10 26.1 µM | T47D 15.6 µM | NCI-H23 13.8 µM | OVCAR-8 23.9 µM | M14 16.3 µM

Cc1cn(CCCCCOC(=O)NC(CCCNC(=N)N)C(=O)O)c(=O)[nH]c1=O (stereo not given)
inactive: OVCAR-4 > 100 µM | BT-549 > 100 µM | ACHN 72.3 µM | CCRF-CEM 37.2 µM | HOP-92 > 100 µM | DU-145 37.5 µM | MDA-MB-231 69.8 µM | EKVX 40.3 µM | 786-0 39.4 µM | MDA-N 6.9 µM | SK-MEL-28 76.4 µM | RXF 393 33.3 µM | PC-3 40.8 µM | UACC-257 > 100 µM | UACC-62 26.7 µM | TK-10 > 100 µM | T47D > 100 µM | NCI-H23 40.2 µM | OVCAR-8 39.4 µM | M14 55.6 µM

CC(=O)Oc1ccc(C(c2ccc(OC(C)=O)cc2)c2ccccn2)cc1 [BISACODYL]
active: OVCAR-4 0.146 µM | BT-549 0.0843 µM | T47D 0.228 µM
inactive: ACHN 78.7 µM | CCRF-CEM 71.1 µM | HOP-92 36.8 µM | DU-145 > 84.3 µM | MDA-MB-231 54.7 µM | EKVX 18.8 µM | 786-0 > 91.6 µM | MDA-N > 87.9 µM | SK-MEL-28 > 100 µM | RXF 393 13.8 µM | PC-3 26.5 µM | UACC-257 > 87.3 µM | UACC-62 47.5 µM | TK-10 81.3 µM | NCI-H23 3.83 µM | OVCAR-8 1.4 µM | M14 > 93.5 µM
